From PMC11432795, “Mutagenesis of the Peptide Inhibitor of ASIC3 Channel Introduces Binding to Thumb Domain of ASIC1a but Reduces Analgesic Activity” (Marine Drugs, 2024)
Positions of bridges follow the written chain, without caps; N, C: chain ends. Residues, ends and D or L forms follow the SMILES beside them.

Columns and labels:
rat ASIC3 channel = molecular target: T1, rat ASIC3 channel (Rattus norvegicus, UniProt O35240); experiment: Two-electrode voltage clamp, rat ASIC3 in X. laevis oocytes; format: cell-based; details: pH 5.5 stimulus, mean ± S.E.M., 5 cells; for nH: inhibition of rat ASIC3, conditioning pH 7.4; for IC50: rat ASIC3, X. laevis oocytes, TEVC, Vh −50 mV, conditioning pH 7.4, peptide 30 s before stimulus
T1 construct: expressed in transfected cells; host or cells: Xenopus laevis oocytes injected with mRNA made from pcDNA3.1-rat ASIC3
T1 sequence (O35240 1-533): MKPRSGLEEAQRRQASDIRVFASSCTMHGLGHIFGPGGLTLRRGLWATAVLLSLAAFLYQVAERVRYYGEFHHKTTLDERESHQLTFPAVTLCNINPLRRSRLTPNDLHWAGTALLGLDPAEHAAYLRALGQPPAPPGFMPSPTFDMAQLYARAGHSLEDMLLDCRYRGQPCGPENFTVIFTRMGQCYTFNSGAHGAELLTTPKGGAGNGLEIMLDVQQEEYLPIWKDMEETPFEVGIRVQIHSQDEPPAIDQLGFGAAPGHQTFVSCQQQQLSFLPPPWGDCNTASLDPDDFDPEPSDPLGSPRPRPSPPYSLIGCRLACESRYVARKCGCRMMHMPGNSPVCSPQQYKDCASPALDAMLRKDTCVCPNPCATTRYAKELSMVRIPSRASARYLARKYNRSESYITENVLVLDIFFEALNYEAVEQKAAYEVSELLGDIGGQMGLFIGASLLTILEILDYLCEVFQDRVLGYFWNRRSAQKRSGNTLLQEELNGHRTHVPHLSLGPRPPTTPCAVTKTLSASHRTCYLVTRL
Procedure: Figure 3 The effect of mutant peptides S16K and A23K on rat ASIC1a and ASIC3 channels. […] (B) Dose–response curves for the inhibitory effect of mutant peptides on ASIC1a. Each data point represents data from 5 cells. (C) Representative current traces of Ugr9-1, S16K, and A23K at a concentration of 12.5 µM on ASIC3. […] Each point represents data from 5 cells. The depicted currents were induced by a pH 5.5 stimulus following a conditioning pH of 7.4, with peptides applied for 30 s before the pH stimulus. The holding potential (Vh) was −50 mV, and the time interval between applications ranged from 1 to 2 min. Data are presented as mean ± S.E.M.
A small portion of the ovary was isolated from frogs under anesthesia induced by a 0.17% solution of procaine methanesulphonate (MS222) (Sigma), followed by treatment with collagenase (1 mg/mL) at room temperature for 2 h. Oocytes at stages IV and V, devoid of follicular membranes, were transferred to ND-96 medium (containing 96 mM NaCl, 5 mM HEPES, 2 mM KCl, 1.8 mM CaCl2, 1 mM MgCl2, pH 7.4). mRNA synthesis was performed from pcDNA3.1 vectors (Invitrogen, Carlsbad, CA, USA) containing the rat ASIC3 gene, as well as pCI vectors containing genes for rat ASIC1a, its mutant analogues, and ASIC1b. mRNA (2.5–10 ng) was then injected into the oocytes. For the ASIC1a/3 heteromeric channels, the mRNA encoding the ASIC1a and ASIC3 subunits were injected in a 1:5 ratio, respectively. Subsequently, the oocytes were incubated for 2–3 days at a temperature of 17–19 °C in ND96 medium supplemented with gentamicin and streptomycin (20 µg/mL each).
Whole-cell electrophysiological recordings of ASIC channels were conducted using a two-electrode voltage-clamp setup. Microelectrodes were filled with 3 M KCl. Recordings from oocytes were carried out at a holding potential of −50 mV, with data filtered at 10 Hz and sampled at a rate of 100 Hz using an L780M ADC (LCard, Moscow, Russia). The synchronized delivery of solutions into the chamber and recording of electrophysiological results were carried out using in-house software v.2. Activation of ASIC channels occurred through rapid pH changes in the solution, achieved by replacing the working solution in the chamber with ND96-based solutions at varying pH levels. Specifically, HEPES was substituted with 10 mM MES for pH 5.5–6.5 and MOPS for pH 6.7–7.0.
Fresh peptide solutions were meticulously prepared in ND96 buffer with a pH of 7.43 immediately before experiments, with strict control over the pH levels. Peptides were applied for 30 s at a conditioning pH of 7.43 before acid stimulation of the channel. The interval between applications was maintained at a minimum of 1.5 to 2 min.
Electrophysiological data analysis was conducted using OriginPro 2018 software (OriginLab, Northampton, MA, USA). Dose–response relationships for Ugr9a-1, S16K, and A23K peptides were fitted using a Hill function: F1(x) = A − A/(1 + (x/IC50)^nH), where F1(x) represents the amplitude of the current at concentration x of the peptide, A is the maximum amplitude of the current, IC50 is the half-maximum inhibitory concentration of the peptide, and nH is the Hill coefficient.

[1] = CFA-induced hyperalgesia, von Frey test; format: in vivo, ICR mice; details: for increase in paw withdrawal threshold (PWT), significance by dose: 0.002, 0.02, 0.2 mg/kg i.m.
Procedure: (§1) In the CFA-induced hyperalgesia test, where CFA administration induces excess sensitivity to mechanical and thermal stimuli, the analgesic effects of peptides were assessed using von Frey filaments of varying forces (von Frey test) and a hot plate apparatus (hot plate test).
(§2) Adult male ICR mice (Animal Breeding Facility Branch of Shemyakin–Ovchinnikov Institute of Bioorganic Chemistry, Russian Academy of Sciences, Pushchino, Russia), weighing 20–25 g, were utilized. Animals were housed under controlled conditions, with a room temperature of 23 ± 2 °C, a 12 h light–dark cycle, and ad libitum access to food and water. Test substances were dissolved in saline. Peptides (Ugr9-1 and A23K at doses of 0.002, 0.02, and 0.2 mg/kg) and saline (for the control group) were administered intramuscularly 60 min prior to testing.
(§3) The abdominal constriction test of visceral pain (acetic acid-induced writhing pain model) and hyperalgesia induced by complete Freund’s adjuvant (CFA-induced inflammatory pain model) were performed as previously described.
For the von Frey filaments test, mice were positioned in a plastic chamber with access to the inflamed hind paw surface and an electronic von Frey filament (BIO-EVF, Bioseb, Vitrolles, France) was applied with gradually increasing pressure until withdrawal. Data, expressed as the strength of the applied mechanical stimulus from three applications, were averaged, with intervals between exposures of at least 1 min.
(§4) Statistical analysis was conducted using analysis of variance (ANOVA) with post hoc Tukey’s test, and data are presented as mean ± standard deviation (S.D.).

[2] = Acetic acid-induced writhing (AAW pain model); format: in vivo, ICR mice; details: for reduction of number of writhes, significance by dose: 0.002, 0.02, 0.2 mg/kg i.m.
Procedure: In both the AAW and CFA-induced hyperalgesia, Ugr9-1 and A23K peptides were administered intramuscularly one hour before the experiments at doses of 0.002, 0.02, and 0.2 mg/kg. In the AAW test, analgesic efficacy was evaluated by assessing the reduction in the number of involuntary writhing episodes induced by intraperitoneal injection of a 0.6% acetic acid solution.
as §2, §3, §4

[3] = CFA-induced hyperalgesia, hot plate test; format: in vivo, ICR mice; details: hot plate 53 °C; for prolongation of paw withdrawal time, significance by dose: 0.002, 0.02, 0.2 mg/kg i.m.
Procedure: as §1, §2, §3, §4

[4] = one hour before testing, 0.6% acetic acid i.p., n = 7
[5] = 0.02 mg/kg i.m., one hour before testing, n = 7

Row | SMILES | nH (rat ASIC3 channel) | IC50 (rat ASIC3 channel) | increase in PWT compared to Ugr9-1 ([1]; 0.02 mg/kg i.m., versus Ugr9-1) | increase in paw withdrawal threshold (PWT), significance by dose ([1]; one hour before testing, n = 7) | reduction of writhing, times less effective than Ugr9-1 ([2]; 0.02 mg/kg i.m., versus Ugr9-1) | reduction of number of writhes, significance by dose [2, 4] | prolongation of paw withdrawal time, significance by dose ([3]; one hour before testing, n = 7) | paw withdrawal time effect compared to Ugr9-1 ([3]; versus Ugr9-1) | increase in paw withdrawal threshold (maximum effect) [1, 5] | inhibition of number of writhes (maximum effect) ([2]; 0.02 mg/kg i.m., one hour before testing, 0.6% acetic acid i.p., n = 7) | increase in paw withdrawal time (maximum effect) [3, 5]
1 | CC[C@H](C)[C@H](N)C(=O)N[C@@H](CO)C(=O)N[C@H](C(=O)N[C@@H](CC(=O)O)C(=O)N1CCC[C@H]1C(=O)N1CCC[C@H]1C(=O)N[C@H]1CSSC[C@@H]2NC(=O)[C@H](CC(N)=O)NC(=O)CNC(=O)[C@H](CO)NC(=O)CNC(=O)[C@H](CC(=O)O)NC(=O)[C@H](CCCNC(=N)N)NC(=O)[C@H](Cc3c[nH]cn3)NC(=O)[C@H](Cc3ccc(O)cc3)NC(=O)[C@H](CSSC[C@@H](C(=O)NCC(=O)N[C@@H](C)C(=O)N[C@H](C(=O)O)C(C)C)NC(=O)CNC(=O)[C@H](Cc3ccc(O)cc3)NC(=O)[C@H](CCCCN)NC(=O)[C@H](CC(=O)O)NC(=O)[C@H](Cc3ccc(O)cc3)NC(=O)[C@H](C(C)C)NC2=O)NC(=O)[C@H](Cc2ccccc2)NC(=O)[C@H](CCCNC(=N)N)NC1=O)[C@@H](C)CC [A23K] (H-ISIDPPCRFCYHRDGSGNCVYDKYGCGAV-OH; disulfide 7-19, 10-26) | 3.58 ± 0.08 | 9.39 µM | more than three times less effectively than Ugr9-1 | significantly increased PWT only at 0.02 mg/kg | 1.5 times | significant reduction in writhing episodes only at a dose of 0.02 mg/kg | effects only at doses of 0.02 and 0.2 mg/kg | two times less effective than Ugr9-1 | – | – | –
2 | CC[C@H](C)[C@H](N)C(=O)N[C@@H](CO)C(=O)N[C@H](C(=O)N[C@@H](CC(=O)O)C(=O)N1CCC[C@H]1C(=O)N1CCC[C@H]1C(=O)N[C@H]1CSSC[C@@H]2NC(=O)[C@H](CC(N)=O)NC(=O)CNC(=O)[C@H](CO)NC(=O)CNC(=O)[C@H](CC(=O)O)NC(=O)[C@H](CCCNC(=N)N)NC(=O)[C@H](Cc3c[nH]cn3)NC(=O)[C@H](Cc3ccc(O)cc3)NC(=O)[C@H](CSSC[C@@H](C(=O)NCC(=O)N[C@@H](C)C(=O)N[C@H](C(=O)O)C(C)C)NC(=O)CNC(=O)[C@H](Cc3ccc(O)cc3)NC(=O)[C@H](C)NC(=O)[C@H](CC(=O)O)NC(=O)[C@H](Cc3ccc(O)cc3)NC(=O)[C@H](C(C)C)NC2=O)NC(=O)[C@H](Cc2ccccc2)NC(=O)[C@H](CCCNC(=N)N)NC1=O)[C@@H](C)CC [Ugr9-1] (H-ISIDPPCRFCYHRDGSGNCVYDAYGCGAV-OH; disulfide 7-19, 10-26) | 2.33 ± 0.17 | 14.2 ± 0.96 µM | – | significant increase in paw withdrawal threshold (PWT) at all doses | – | significantly decreased the number of writhes at all three doses | significantly prolonged paw withdrawal time at all doses | – | 270% | 30% | 106%
